This is an account of results in US8680159B2, “Bradykinin 1 receptor modulating compounds” (Gruenenthal GmbH, priority 2010, dated 2014).

Test [1] addresses T1, human B1R receptor (CHO K1 cells stably transfected with the human B1R gene) (Homo sapiens, UniProt P46663).
T1 construct: expressed in transfected cells; host or cells: CHO K1 cells (Chinese hamster ovary), stably transfected
T1 sequence (P46663 1-353): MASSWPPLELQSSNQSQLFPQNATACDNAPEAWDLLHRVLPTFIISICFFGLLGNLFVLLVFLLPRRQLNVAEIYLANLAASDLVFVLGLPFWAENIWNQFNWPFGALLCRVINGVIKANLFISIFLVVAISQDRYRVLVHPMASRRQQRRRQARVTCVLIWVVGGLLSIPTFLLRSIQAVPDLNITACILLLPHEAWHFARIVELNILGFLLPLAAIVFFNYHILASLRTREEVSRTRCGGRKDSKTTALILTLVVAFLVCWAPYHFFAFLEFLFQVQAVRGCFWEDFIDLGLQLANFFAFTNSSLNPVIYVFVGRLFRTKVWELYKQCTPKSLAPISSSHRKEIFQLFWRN
Description: Functional study on the bradykinin receptor 1 (B1R), Ca2+ fluorescence (Fluo-4) FLIPR/Novostar assay, hB1R cells. Format: cell-based. Particulars: CHO-K1, read-out: % inhibition (human B1R) at 10 μM. In outline: (§1)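 Ca2+ influx (Fluo-4, peak fluorescence, λex 488/λem 540 nm) was measured in CHO K1 lines expressing rat or human B1R. After a 10 μM test-compound pre-addition scoring % activation, cells received EC80 agonist: Des-Arg9-bradykinin for rat, Lys-Des-Arg9-bradykinin for human. Antagonism was expressed as % of maximum inhibition, with IC50 from varied concentrations.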

The target of test [2] is T2, B1R receptor of the rat (CHO K1 cells stably transfected with the B1R gene of the rat) (Rattus norvegicus, UniProt P97583).
T2 construct: expressed in transfected cells; host or cells: CHO K1 cells (Chinese hamster ovary), stably transfected
T2 sequence (P97583 1-337): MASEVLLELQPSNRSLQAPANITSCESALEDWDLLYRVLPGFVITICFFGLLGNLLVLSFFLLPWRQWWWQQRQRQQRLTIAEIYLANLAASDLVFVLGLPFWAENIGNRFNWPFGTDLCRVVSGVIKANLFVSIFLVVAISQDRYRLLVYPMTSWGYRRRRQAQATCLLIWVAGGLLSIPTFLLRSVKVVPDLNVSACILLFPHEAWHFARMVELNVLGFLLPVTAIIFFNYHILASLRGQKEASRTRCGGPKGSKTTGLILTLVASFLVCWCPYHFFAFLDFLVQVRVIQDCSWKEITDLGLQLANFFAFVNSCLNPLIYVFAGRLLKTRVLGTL
The test can be described thus: Functional study on the bradykinin receptor 1 (B1R), Ca2+ fluorescence (Fluo-4) FLIPR/Novostar assay, rB1R cells. Format: cell-based. Particulars: CHO-K1, 10 μM, read-out: % inhibition (rat B1R) at 10 μM. In outline: as §1

One may read the inhibition as the drop in the measured response relative to a control, in per cent. Regarding `CC(C)N(C(=O)c1ccccc1Cl)[C@@H]1CCc2cc(F)c(C(=O)N(C)C3CCN(c4ccncc4)CC3)cc21` [Example H-155, (3R)-3-[(2-Chloro-benzoyl)-isopropyl-amino]-6-fluoro-N-methyl-N-(1-pyridin-4-yl-piperidin-4-yl)-2,3-dihydro-1H-indene-5-carboxylic acid amide], the inhibition at 10 µM in test [1] came to 62%; in test [2], 104%.
The corresponding values for `CCN(C(=O)c1ccc2c(c1)[C@H](NC(=O)c1ccccc1Cl)CC2)C1CCN(c2ncnc3nc[nH]c23)CC1` [Example H-156, (3R)-3-[(2-Chloro-benzoyl)amino]-N-ethyl-N-[1-(7H-purin-6-yl)-piperidin-4-yl]-2,3-dihydro-1H-indene-5-carboxylic acid amide] are 90% and 101%.
The corresponding values for `CC(C)N(C(=O)c1ccccc1Cl)[C@@H]1CCc2cc(C(=O)N(C)C3CCN(c4ccncc4)CC3)c(F)cc21` [Example H-158, (1R)-1-[(2-Chloro-benzoyl)isopropyl-amino]-6-fluoro-N-methyl-N-(1-pyridin-4-yl-piperidin-4-yl)-2,3-dihydro-1H-indene-5-carboxylic acid amide] are 23% and 61%.
In the case of `Cc1cc(N2CC(N(C)C(=O)c3ccc4c(c3)[C@H](NC(=O)c3ccccc3Cl)CC4)C2)ccn1` [Example H-160, (3R)-3-[(2-Chloro-benzoyl)amino]-N-methyl-N-[1-(2-methyl-pyridin-4-yl)-azetidin-3-yl]-2,3-dihydro-1H-indene-5-carboxylic acid amide], the inhibition at 10 µM in test [1] was determined as 100%; in test [2] it was 109%.
As to `Cc1cc(N2CC(N(C)C(=O)c3ccc4c(c3)[C@H](N3Cc5cccc(Cl)c5C3=O)CC4)C2)ccn1` [Example H-161, (3R)-3-(4-Chloro-3-oxo-1,2-dihydro-isoindol-2-yl)-N-methyl-N-[1-(2-methyl-pyridin-4-yl)-azetidin-3-yl]-2,3-dihydro-1H-indene-5-carboxylic acid amide], the inhibition at 10 µM in test [1] came out at 99%; in test [2], 111%.
The corresponding values for `Cc1cc(N2CCC(N(C)C(=O)c3ccc4c(c3)[C@H](NC(=O)c3ccccc3C)CC4)CC2)nc(C)n1` [Example H-162, (3R)-N-[1-(2,6-Dimethyl-pyrimidin-4-yl)-piperidin-4-yl]-N-methyl-3-[(2-methyl-benzoyl)amino]-2,3-dihydro-1H-indene-5-carboxylic acid amide] are 100% and 105%.
For `Cc1cc(N2CCC(N(C)C(=O)c3ccc4c(c3)[C@H](NC(=O)c3c(F)cccc3Cl)CC4)CC2)nc(C)n1` [Example H-163, (3R)-3-[(2-Chloro-6-fluoro-benzoyl)amino]-N-[1-(2,6-dimethyl-pyrimidin-4-yl)-piperidin-4-yl]-N-methyl-2,3-dihydro-1H-indene-5-carboxylic acid amide], in that order: 99% and 104%.
For `CN(C(=O)c1ccc2c(c1)[C@H](NC(=O)c1cccc(F)c1Cl)CC2)C1CCN(c2ccncn2)CC1` [Example H-164, (3R)-3-[(2-Chloro-3-fluoro-benzoyl)amino]-N-methyl-N-(1-pyrimidin-4-yl-piperidin-4-yl)-2,3-dihydro-1H-indene-5-carboxylic acid amide], in that order: 100% and 105%.
`Cc1cc(N2CCC(N(C)C(=O)c3ccc4c(c3)[C@H](NC(=O)c3ccc(F)cc3Cl)CC4)CC2)nc(C)n1` [Example H-165, (3R)-3-[(2-Chloro-4-fluoro-benzoyl)amino]-N-[1-(2,6-dimethyl-pyrimidin-4-yl)-piperidin-4-yl]-N-methyl-2,3-dihydro-1H-indene-5-carboxylic acid amide]: the figures for the inhibition at 10 µM in test [1] and in test [2] were 100% and 105%, respectively.
The corresponding values for `Cc1cc(N2CCC(N(C)C(=O)c3ccc4c(c3)[C@H](N(C(=O)c3ccccc3Cl)C(C)C)CC4)CC2)nc(C(C)C)n1` [Example H-166, (3R)-3-[(2-Chloro-benzoyl)-isopropyl-amino]-N-[1-(2-isopropyl-6-methyl-pyrimidin-4-yl)-piperidin-4-yl]-N-methyl-2,3-dihydro-1H-indene-5-carboxylic acid amide] are 100% and 55%.
For `CCN(C(=O)c1ccc(F)cc1Cl)[C@@H]1CCc2ccc(C(=O)N(C)C3CCN(c4cc(C)nc(C)n4)CC3)cc21` [Example H-167, (3R)-3-[(2-Chloro-4-fluoro-benzoyl)-ethyl-amino]-N-[1-(2,6-dimethyl-pyrimidin-4-yl)-piperidin-4-yl]-N-methyl-2,3-dihydro-1H-indene-5-carboxylic acid amide], in that order: 100% and 109%.
As to `Cc1cc(N2CCC(N(C)C(=O)c3ccc4c(c3)[C@H](N(C)C(=O)c3ccc(F)cc3Cl)CC4)CC2)nc(C)n1` [Example H-168, (3R)-3-[(2-Chloro-4-fluoro-benzoyl)-methyl-amino]-N-[1-(2,6-dimethyl-pyrimidin-4-yl)-piperidin-4-yl]-N-methyl-2,3-dihydro-1H-indene-5-carboxylic acid amide], the inhibition at 10 µM was found to be 100% in test [1] and 104% in test [2].
On to `Cc1cc(N2CCC(N(C)C(=O)c3ccc4c(c3)[C@H](N(C)C(=O)c3ccccc3C)CC4)CC2)nc(C)n1` [Example H-169, (3R)-N-[1-(2,6-Dimethyl-pyrimidin-4-yl)-piperidin-4-yl]-N-methyl-3-[methyl-(2-methyl-benzoyl)-amino]-2,3-dihydro-1H-indene-5-carboxylic acid amide], for which the inhibition at 10 µM in test [1] came to 100%; in test [2], 106%.
For `CCN(C(=O)c1ccccc1C)[C@@H]1CCc2ccc(C(=O)N(C)C3CCN(c4cc(C)nc(C)n4)CC3)cc21` [Example H-170, (3R)-N-[1-(2,6-Dimethyl-pyrimidin-4-yl)-piperidin-4-yl]-3-[ethyl-(2-methyl-benzoyl)-amino]-N-methyl-2,3-dihydro-1H-indene-5-carboxylic acid amide], in that order: 100% and 106%.
The corresponding values for `Cc1cc(N2CCC(N(C)C(=O)c3ccc4c(c3)[C@H](N(C)C(=O)c3cccnc3C(F)(F)F)CC4)CC2)nc(C)n1` [Example H-171, N-[(1R)-6-[[1-(2,6-Dimethyl-pyrimidin-4-yl)-piperidin-4-yl]-methyl-carbamoyl]-2,3-dihydro-1H-inden-1-yl]-N-methyl-2-(trifluoromethyl)pyridine-3-carboxylic acid amide] are 100% and 104%.
For `CC(C)N(C(=O)c1ccc2c(c1)[C@H](NC(=O)c1ccccc1Cl)CC2)C1CCN(c2ccncc2)CC1` [Example H-178, (3R)-3-[(2-Chloro-benzoyl)amino]-N-isopropyl-N-(1-pyridin-4-yl-piperidin-4-yl)-2,3-dihydro-1H-indene-5-carboxylic acid amide], in that order: 100% and 101%.
For `Cc1cc(N2CCC(N(C)C(=O)c3ccc4c(c3)[C@H](NC(=O)C(C)(C)F)CC4)CC2)ccn1` [Example H-179, (3R)-3-[(2-Fluoro-2-methyl-propanoyl)amino]-N-methyl-N-[1-(2-methyl-pyridin-4-yl)-piperidin-4-yl]-2,3-dihydro-1H-indene-5-carboxylic acid amide], the inhibition at 10 µM in test [1] is 94%; in test [2], 100%.
In the case of `CN(C(=O)c1ccc2c(c1)[C@H](NC(=O)c1ccccc1Cl)CC2)C1CCN(c2nccn2C)CC1` [Example H-180, (3R)-3-[(2-Chloro-benzoyl)amino]-N-methyl-N-[1-(1-methyl-1H-imidazol-2-yl)-piperidin-4-yl]-2,3-dihydro-1H-indene-5-carboxylic acid amide], the inhibition at 10 µM came to 89% in test [1] and 104% in test [2].
For `Cc1cncc(N2CCC(N(C)C(=O)c3ccc4c(c3)[C@H](NC(=O)c3ccccc3Cl)CC4)CC2)n1` [Example H-181, (3R)-3-[(2-Chloro-benzoyl)amino]-N-methyl-N-[1-(6-methyl-pyrazin-2-yl)-piperidin-4-yl]-2,3-dihydro-1H-indene-5-carboxylic acid amide], in that order: 77% and 100%.
